The results in this text go back to patent US9133179B2, “2-methoxy-pyridin-4-yl-derivatives” (Actelion Pharmaceuticals Ltd., priority 2011, dated 2015).

The target in test [1] is T1, human S1P1 (EDG1) receptor (Homo sapiens, UniProt P21453).
T1 construct: host or cells: U2OS (Tango EDG1-bla U2OS)
The test can be described thus: S1P1 β-arrestin recruitment (Tango) assay to determine EC50 values. The class given is cell-based. The following applies: Tango-EDG1 bla U2OS cells, 16 h incubation. The text has this: S1P1 β-Arrestin Recruitment (Tango) Assay to Determine EC50 Values
Upon ligand activation, G protein-coupled receptors (GPCR) trigger two pathways that independently transduce signals to the cell: one through heterotrimeric GTP-binding proteins (G proteins) and one through β-arrestins. Agonist-induced GPCRs recruit β-arrestin proteins, which then bind to the carboxy-terminal domain of ligand-activated GPCRs. The amount of β-arrestin recruitment can be used to assess the potency and efficacy of GPCR activating ligands.
To measure the potency and efficacy of compounds as S1P1 (EDG1) receptor agonists, Tango™-EDG1 bla U2OS cells (Invitrogen, USA, Catalog #K1520) are used. The Tango™ GPCR technology is based on GeneBLAzer β-lactamase reporter cell assays, which uses a mammalian-optimized β-lactamase reporter gene (bla) combined with a FRET-enabled substrate. The host cells, U2OS, stably express a human S1P1 (EDG1) receptor/transcription factor (TF) fusion protein. The cells also express a recombinant protease tagged β-arrestin protein, which is recruited to the S1P1 receptor upon ligand stimulation and specifically cleaves the S1P1-TF fusion protein. The released TF activates the β-lactamase (bla) reporter gene. To measure the reporter gene activity, cells are loaded with a fluorescent substrate containing two chemically coupled fluorophores, coumarin and fluorescein. […] In the presence of bla, the chemical bond is cleaved and FRET is inhibited. […] The amount of β-arrestin recruitment is proportional to the increase in blue fluorescence.
Tango™-EDG1 bla U2OS cells are cultivated in McCoy's 5A containing 10% dialyzed FBS, 0.1 mM NEAA, 25 mM HEPES, 1 mM sodium pyruvate, 1% Penicillin/Streptomycin, 200 μg/ml zeocin, 50 μg/ml hygromycin and 100 μg/ml geneticin (Invitrogen, USA). Cells are detached with trypsin, resuspended in medium and then counted.
Compounds (10 mM stock in DMSO) are diluted first in DMSO. The pre-diluted compounds solutions are then transferred into Assay Medium/0.1% fatty acid free BSA to reach a fourfold concentrated compound stock, which is applied to the cells to reach the final compound concentrations that range from 10 μM to 0.0005 nM (0.5% final DMSO). Cells are then incubated for 16 h at 37° C. and 5% CO2.
(In general: Recruitment of arrestin is a read-out of receptor activation apart from second messengers.)

The subject of test [2] is circulating lymphocytes. Nature of the test: Assessment of in vivo efficacy: circulating lymphocytes after oral administration to Wistar rats. On the set-up: species or system rat. The following applies: Rattus norvegicus, Lymphocyte, normotensive male Wistar rats, compared to vehicle group, read-out: Lymphocyte counts; for change in vivo at 10 mg/kg: 6 h after oral administration of 10 mg/kg; for change in vivo at 3 mg/kg: 6 h after an oral dose of 3 mg/kg. The procedure: Assessment of In Vivo Efficacy
The efficacy of the compounds of Formula (I) is assessed by measuring the circulating lymphocytes after oral administration of 3 to 30 mg/kg of a compound of Formula (I) to normotensive male Wistar rats. The animals are housed in climate-controlled conditions with a 12 h-light/dark cycle, and have free access to normal rat chow and drinking water. […] Full blood is subjected to hematology using Advia Hematology system (Bayer Diagnostics, Zurich, Switzerland).
All data are presented as mean±SEM. Statistical analyses are performed by analysis of variance (ANOVA) using Statistica (StatSoft) and the Student-Newman-Keuls procedure for multiple comparisons. The null hypothesis is rejected when p<0.05.

T1 sequence (P21453 whole entry): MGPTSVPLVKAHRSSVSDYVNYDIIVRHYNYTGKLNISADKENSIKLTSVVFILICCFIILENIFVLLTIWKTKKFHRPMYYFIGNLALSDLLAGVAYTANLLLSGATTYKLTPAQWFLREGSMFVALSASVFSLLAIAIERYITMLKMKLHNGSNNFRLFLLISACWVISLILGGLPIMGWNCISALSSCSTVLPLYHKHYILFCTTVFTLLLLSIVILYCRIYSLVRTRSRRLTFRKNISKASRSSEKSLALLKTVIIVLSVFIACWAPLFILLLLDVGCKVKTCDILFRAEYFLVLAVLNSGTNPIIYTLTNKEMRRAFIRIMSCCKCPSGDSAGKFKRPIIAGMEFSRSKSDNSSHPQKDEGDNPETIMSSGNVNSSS

The EC50 is the concentration at which the effect is half-maximal. Molecule `CCc1cc(-c2noc(-c3cc(OC)nc(C4CCCC4)c3)n2)cc(C)c1OCCCNCC(=O)O` [Example 18, 2-((3-(4-(5-(2-Cyclopentyl-6-methoxypyridin-4-yl)-1,2,4-oxadiazol-3-yl)-2-ethyl-6-methylphenoxy)propyl)amino)acetic acid] showed an EC50 in test [1] of 0.3 nM. For the same molecule, in test [2], the change in vivo at 10 mg/kg was -24%.
On the same counts, the results for `CCc1cc(-c2noc(-c3cc(OC)nc(C4CCCC4)c3)n2)cc(C)c1OCCCN(C)CC(=O)O` [Example 20, 2-((3-(4-(5-(2-Cyclopentyl-6-methoxypyridin-4-yl)-1,2,4-oxadiazol-3-yl)-2-ethyl-6-methylphenoxy)propyl)(methyl)amino)acetic acid] are 1.5 nM and -57%.
`CCc1cc(-c2noc(-c3cc(OC)nc(C4CCCC4)c3)n2)cc(C)c1OCCCN(C)CCC(=O)O` [Example 21, 3-((3-(4-(5-(2-Cyclopentyl-6-methoxypyridin-4-yl)-1,2,4-oxadiazol-3-yl)-2-ethyl-6-methylphenoxy)propyl)(methyl)amino)propanoic acid] returned an EC50 in test [1] of 0.659 nM. Further, the change in vivo at 10 mg/kg in test [2] is -74%.
With `CCc1cc(-c2noc(-c3cc(OC)nc(C4CCCC4)c3)n2)cc(C)c1OCCCNC(=O)CO` [Example 29, N-(3-(4-(5-(2-Cyclopentyl-6-methoxypyridin-4-yl)-1,2,4-oxadiazol-3-yl)-2-ethyl-6-methylphenoxy)propyl)-2-hydroxyacetamide], the EC50 in test [1] turned out to be 0.265 nM. For the same molecule, the change in vivo at 10 mg/kg in test [2] is -76%.
In the case of `CCc1cc(-c2noc(-c3cc(OC)nc(C4CCCC4)c3)n2)cc(C)c1OCCCN(C)C(=O)CO` [Example 30, N-(3-(4-(5-(2-Cyclopentyl-6-methoxypyridin-4-yl)-1,2,4-oxadiazol-3-yl)-2-ethyl-6-methylphenoxy)propyl)-2-hydroxy-N-methylacetamide], in test [1], the EC50 was 7.98 nM. Also, the change in vivo at 10 mg/kg in test [2] is -75%.
For `CCc1cc(-c2noc(-c3cc(OC)nc(C4CCCC4)c3)n2)cc(C)c1OCCCNC(=O)CC(=O)O` [Example 31, 3-((3-(4-(5-(2-Cyclopentyl-6-methoxypyridin-4-yl)-1,2,4-oxadiazol-3-yl)-2-ethyl-6-methylphenoxy)propyl)amino)-3-oxopropanoic acid], in test [1], it took 0.0716 nM to reach a half-maximal effect (EC50). Besides, the change in vivo at 10 mg/kg in test [2] is -68%.
With `CCc1cc(-c2noc(-c3cc(OC)nc(C4CCCC4)c3)n2)cc(C)c1OCCCN(C)C(=O)CC(=O)O` [Example 33, 3-((3-(4-(5-(2-Cyclopentyl-6-methoxypyridin-4-yl)-1,2,4-oxadiazol-3-yl)-2-ethyl-6-methylphenoxy)propyl)(methyl)amino)-3-oxopropanoic acid], the EC50 in test [1] amounted to 0.501 nM. In addition, in test [2], the change in vivo at 10 mg/kg was -78%.
`CCc1cc(-c2noc(-c3cc(OC)nc(C4CCCC4)c3)n2)cc(C)c1OCCCN(C)C(=O)CCC(=O)O` [Example 34, 4-((3-(4-(5-(2-Cyclopentyl-6-methoxypyridin-4-yl)-1,2,4-oxadiazol-3-yl)-2-ethyl-6-methylphenoxy)propyl)(methyl)amino)-4-oxobutanoic acid]: in test [1], the 50% effective concentration (EC50) is 0.515 nM. For the same molecule, in test [2], the change in vivo at 10 mg/kg was -66%.
In test [1], `COc1cc(-c2nc(-c3cc(Cl)c(OCCCC(=O)NCCO)c(OC)c3)no2)cc(C2CCCC2)n1` [Example 36, 4-(2-Chloro-4-(5-(2-cyclopentyl-6-methoxypyridin-4-yl)-1,2,4-oxadiazol-3-yl)-6-methoxyphenoxy)-N-(2-hydroxyethyl)butanamide] returned an EC50 of 1.7 nM. Besides, the change in vivo at 10 mg/kg in test [2] was -73%.
`COc1cc(-c2nc(-c3cc(Cl)c(OCCNCCC(=O)O)c(OC)c3)no2)cc(C2CCCC2)n1` [Example 37, 3-((2-(2-Chloro-4-(5-(2-cyclopentyl-6-methoxypyridin-4-yl)-1,2,4-oxadiazol-3-yl)-6-methoxyphenoxy)ethyl)amino)propanoic acid] registered an EC50 in test [1] of 0.2 nM. Further, the change in vivo at 10 mg/kg in test [2] was -71%.
Consider `CCc1cc(-c2noc(-c3cc(OC)nc(C4CCCC4)c3)n2)cc(C)c1OCCNCCCC(=O)O` [Example 39, 4-((2-(4-(5-(2-Cyclopentyl-6-methoxypyridin-4-yl)-1,2,4-oxadiazol-3-yl)-2-ethyl-6-methylphenoxy)ethyl)amino)butanoic acid], for which a half-maximal effect in test [1] (EC50) was put at 0.1 nM. Also, the change in vivo at 10 mg/kg in test [2] was -66%.
Regarding `COc1cc(-c2nc(-c3cc(C)c(OCCCC(=O)O)c(Cl)c3)no2)cc(C2CCCC2)n1` [Example 40, 4-(2-Chloro-4-(5-(2-cyclopentyl-6-methoxypyridin-4-yl)-1,2,4-oxadiazol-3-yl)-6-methylphenoxy)butanoic acid], the EC50 in test [1] worked out at 0.05 nM. The change in vivo at 10 mg/kg in test [2] is -65%.
Molecule `COc1cc(-c2nc(-c3cc(C)c(OCC(=O)NCCO)c(Cl)c3)no2)cc(C2CCCC2)n1` [Example 42, 2-(2-Chloro-4-(5-(2-cyclopentyl-6-methoxypyridin-4-yl)-1,2,4-oxadiazol-3-yl)-6-methyl-phenoxy)-N-(2-hydroxyethyl)acetamide] showed an EC50 in test [1] of 0.4 nM. Moreover, the change in vivo at 10 mg/kg in test [2] was -75%.
Molecule `COc1cc(-c2nc(-c3cc(C)c(OCCNCCC(=O)O)c(Cl)c3)no2)cc(C2CCCC2)n1` [Example 43, 3-((2-(2-Chloro-4-(5-(2-cyclopentyl-6-methoxypyridin-4-yl)-1,2,4-oxadiazol-3-yl)-6-methylphenoxy)ethyl)amino)propanoic acid] registered an EC50 in test [1] of 0.1 nM. Moreover, the change in vivo at 10 mg/kg in test [2] was -62%.
As for `COc1cc(-c2nc(-c3cc(C)c(OCCN4CC(C(=O)O)C4)c(Cl)c3)no2)cc(C2CCCC2)n1` [Example 44, 1-(2-(2-Chloro-4-(5-(2-cyclopentyl-6-methoxypyridin-4-yl)-1,2,4-oxadiazol-3-yl)-6-methylphenoxy)ethyl)azetidine-3-carboxylic acid], in test [1], it took 0.1 nM to reach a half-maximal effect (EC50). In test [2], the change in vivo at 10 mg/kg is -62%.
For `CCc1cc(-c2noc(-c3cc(OC)nc(C4CCCC4)c3)n2)cc(C)c1OCCNC(=O)CC(=O)O` [Example 49, 3-((2-(4-(5-(2-Cyclopentyl-6-methoxypyridin-4-yl)-1,2,4-oxadiazol-3-yl)-2-ethyl-6-methylphenoxy)ethyl)amino)-3-oxopropanoic acid], the concentration giving a half-maximal response (EC50) in test [1] was determined as 0.05 nM. The change in vivo at 3 mg/kg in test [2] was -49%.
Consider `COc1cc(-c2nc(-c3cc(Cl)c(OCCNCC(=O)O)c(OC)c3)no2)cc(C2CCCC2)n1` [Example 51, 2-((2-(2-Chloro-4-(5-(2-cyclopentyl-6-methoxypyridin-4-yl)-1,2,4-oxadiazol-3-yl)-6-methoxyphenoxy)ethyl)amino)acetic acid], for which, in test [1], a half-maximal effect (EC50) was put at 0.7 nM. Moreover, the change in vivo at 3 mg/kg in test [2] was -22%.
On to `COc1cc(-c2nc(-c3cc(Cl)c(OCCN4CC(C(=O)O)C4)c(OC)c3)no2)cc(C2CCCC2)n1` [Example 52, 1-(2-(2-Chloro-4-(5-(2-cyclopentyl-6-methoxypyridin-4-yl)-1,2,4-oxadiazol-3-yl)-6-methoxyphenoxy)ethyl)azetidine-3-carboxylic acid], for which the response in test [1] was half-maximal at 0.6 nM (EC50). Besides, the change in vivo at 10 mg/kg in test [2] is -71%.
In test [1], `CCc1cc(-c2nc(-c3cc(OC)nc(C4CCCC4)c3)no2)cc(C)c1OCC(=O)O` [Example 53, 2-(4-(3-(2-Cyclopentyl-6-methoxypyridin-4-yl)-1,2,4-oxadiazol-5-yl)-2-ethyl-6-methylphenoxy)acetic acid] had an EC50 of 1.2 nM. For the same molecule, the change in vivo at 10 mg/kg in test [2] is -72%.
